Article PMC7911614, “Development and Characterization of a Tacrolimus/Hydroxypropyl-β-Cyclodextrin Eye Drop” (Pharmaceutics, 2021)
Values after ≈ are worked out from the molar mass of the structure shown. Like-named read-outs stand apart in the source and are kept apart here.

Tests used:
[1] = physchem; assay type: physicochemical
Protocol: A phase solubility diagram was used to estimate the stability constant (K) of the tacrolimus/HPβCD inclusion complex. The solubility measurements were carried out following the previous work of our research group, described by Anguiano-Igea et al.. This protocol was adjusted to the Higuchi and Connors phase solubility model. A solubility study was carried out by adding an excess amount of the tacrolimus powder to MilliQ® aqueous solutions containing increasing concentrations of HPβCD (from 0 to 400 mg/mL). The vials containing these suspensions were then shaken in a VWR incubated mini-shaker (VWR International, Radnor, PA, USA) at 25 °C and 250 rpm for 7 days until reaching an equilibrium. […]
Tacrolimus concentration was determined for each sample using an HPLC system (Agilent 1260 series; Agilent Technologies®, Santa Clara, CA, USA) equipped with a Diode Array Detector HS, a solvent delivery quaternary pump system, 400 bar maximum pressure and an autosampler. […] A 210-nm wavelength was employed for the tacrolimus quantification. […]
These constants values were calculated using the following Equation (1):S = S0 +(K1:1·S0 + K1:1·K1:2·S0·[HPβCD])·[HPβCD],(1) where S is the total solubility, S0 is the free drug solubility and K1:1 and K1:2 are the stability constants of the complex tacrolimus/HPβCD. […]

[2] = NMR saturation transfer difference (STD) study of tacrolimus/HPβCD binding; conditions: D2O, read-out: Kd of tacrolimus/HPβCD binding equilibrium
Protocol: NMR experiments were conducted at two different temperature conditions, 278 and 298 K, on a Bruker NEO 17.6 T spectrometer (proton resonance 750 MHz) (Billerica, MA, USA), equipped with a ^1H/^13C/^15N triple resonance PA-TXI probe with a deuterium lock channel and a shielded Pulse Field Gradient (PFG) z-gradient. The spectrometer control software was TopSpin 4.0 (Billerica, MA, USA, 2020). The reported chemical shifts are referenced to the lock deuterium solvent. Spectra were processed and analyzed using Mestrenova v14.0 software (Mestrelab Research S.L., Santiago de Compostela, Spain, 2019).
One-dimensional saturation transfer difference ^1H spectra (STD) were measured. The experiment consisted of a selective saturation pulse train, a WET selective solvent suppression module and a 90-degree hard-pulse followed by fid (free induction decay) acquisition. The selective saturation consisted of a train of soft Gaussian-shaped pulses of 50-ms duration with a 1-ms interpulse delay. The selective saturation was applied during 2 s at a specific frequency of the ^1H spectrum, covering a region of the spectrum of ± 125 Hz around the chosen frequency (i.e., ± 0.17 ppm in a 750 spectrometer). The STD^off saturation was applied at 20 ppm. […] The STD^on and STD^off scans were measured in alternate scans and subtracted by the phase cycling, providing the subtracted STD^off-on spectra. […]

[3] = parameters: method as in PMID 32599134, PMID 24015381; conditions: cited from earlier work
[4] = tested on: T cell proliferation; parameters: method as in PMID 22511024; conditions: cited from earlier work
[5] = parameters: method as in PMID 29751694; conditions: cited from earlier work

C=CC[C@@H]1/C=C(\C)C[C@H](C)C[C@H](OC)[C@H]2O[C@@](O)(C(=O)C(=O)N3CCCC[C@H]3C(=O)O[C@H](/C(C)=C/[C@@H]3CC[C@@H](O)[C@H](OC)C3)[C@H](C)[C@@H](O)CC1=O)[C@H](C)C[C@@H]2OC [Tacrolimus]
K1:2 stability constant of tacrolimus/HPβCD complex [1]: 2.1 ± 0.6 M⁻¹ | solubility at 7 days [1]: 4 ± 0.67 µg/mL (≈ 4.97 µM) | Kd ([2]; 278 K, inferred from STD response): < 1 mM | Kd ([2]; 298 K, inferred from absence of STD response): > 10 mM | water solubility [3]: 1 to 12 µg/mL | immunosuppressive activity, times more potent than cyclosporine A [4]: 100 times

CC(O)COC[C@H]1O[C@@H]2O[C@H]3[C@H](O)[C@@H](O)[C@@H](O[C@H]4[C@H](O)[C@@H](O)[C@@H](O[C@H]5[C@H](O)[C@@H](O)[C@@H](O[C@H]6[C@H](O)[C@@H](O)[C@@H](O[C@H]7[C@H](O)[C@@H](O)[C@@H](O[C@H]8[C@H](O)[C@@H](O)[C@@H](O[C@H]1[C@H](O)[C@H]2O)O[C@@H]8COCC(C)O)O[C@@H]7COCC(C)O)O[C@@H]6COCC(C)O)O[C@@H]5COCC(C)O)O[C@@H]4COCC(C)O)O[C@@H]3COCC(C)O (stereo partly drawn) [HPβCD, 2-hydroxypropyl-β-cyclodextrin]
surface tension in solution [5]: 54.8–57.5 mN/m
